In patent US20030035851A1, “Anti-cancer agents and method of use thereof” (priority 2001, published 2003):
≈ marks a conversion by molar mass, not a printed value.

What was measured:
[1] = tested on: LNCaP cell cycle; experiment: Cell cycle distribution by DNA flow cytometry, LNCaP; type: cell-based, Human; parameters: cells arrested in the G1 phase: dose or concentration left out as unconfirmed
Text: The cell cycle is the program for cell growth and cell proliferation (cell division). There are four phases of the cell cycle: G1, S, G2, and M. The G1 phase is characterized by gene expression and protein synthesis, and is regulated primarily by extracellular stimuli. During the S phase, the cell replicates its DNA. During the G2 phase, the cell undergoes growth and protein synthesis in preparation for cell division. The M phase is characterized by cytokinesis of the cell into two daughter cells.
The effect of oridonin and lupulone on LNCaP cells was determined by the following method. 2×10^6-4×10^6 cultured cells were exposed to varying concentrations (e.g., 1.5 microgram/milliliter (ug/ml)-3 ug/ml) of oridonin or lupulone for 24-48 hours in 12.5 cm^2 area flasks before being harvested. The cells were washed with phosphate buffered saline (PBS) and fixed in ice-cold 70% ethanol.
The distribution of cells in various stages of the cell cycle were determined by first staining the cells with the DNA specific fluorochrome, and then by measuring cellular DNA content with an ELITE ESP flow cytometer (Coulter Inc., Fl.) using UV laser illumination. The Multicycle program (Phoenix Flow Systems) was used to deconvolute the DNA frequency histograms to estimate the frequency of cells in different phases of the cell cycle, and those in apoptosis.

[2] = tested on: DU-145 cell cycle; experiment: Cell cycle distribution by DNA flow cytometry, DU-145; type: cell-based; settings: for cell cycle arrest phase / increase in the number of cells arrested in the S phase compared to the control / cells arrested in the G2M phase: DU-145; for increase in the number of cells arrested in the S phase compared to the control: FIG. 6
[3] = tested on: LNCaP and DU-145; experiment: Cell growth inhibition of LNCaP and DU-145 by DES (FIG. 14); type: cell-based; settings: previous study
[4] = tested on: MCF-7 cell cycle; experiment: Cell cycle distribution by DNA flow cytometry, MCF-7; type: cell-based; settings: for cells arrested in the G1 phase: FIG. 7
[5] = tested on: DU-145 cells; experiment: MTT cell proliferation assay, DU-145; type: cell-based; settings: for ED50 values from MTT Assay, DU-145: concentration giving 50% inhibition of cancer cell growth, 72 hours, linear interpolation of FIGS. 1-3
Procedure: (§1) The cells were routinely seeded at 1×10^5 cells/ml in T-75 flasks, allowed to attach overnight, and then treated with the oridonin or the lupulone. At different times, the cells were harvested by trypsinization.
(§2) The inhibitory effect on a cell's ability to divide was determined by an MTT (3-(4,5-dimethylthiazol-2-yl)-2,5-diphenyl tetrazolium bromide) assay. The assay reagents were purchased from Boehringer Mannheim (Roche Diagnosis Corp, Indianapolis, Ind.). […] The MTT assay provides a method whereby cell proliferation can be determined by […]. The protocol for the cell viability assay was provided by Boehringer Mannheim and modified as described below.
(§3) The cells were then incubated at […] and allowed to attach to the plates. After 24 hours, 20 microliter aliquots having varying concentrations of oridonin or lupulone were added to the cell culture. Each aliquot was plated into 3 wells to obtain mean values. […] The plates were incubated at 37° C. in a CO2 incubator for 72 hours. After 72 hours, the culture medium was carefully removed without disturbing the cells and replaced by 100 microliters of fresh cell medium. 10 microliters of MTT was added to each well and the plates were incubated in the CO2 incubator at 37° C. for 4 hours. Afterwards, 100 microliters of sodium dodecylsulfate (SDS) solubilizing reagent (from Boehringer Mannheim) was added to each well. The plates were placed in the CO2 incubator at 37° C. for about 10-14 hours. Afterwards, the cell concentration of each plate was determined by an ELISA Reader (EL800, Bio-Tek Instruments, Inc.) at a wavelength of […]. The percent cell viability was calculated according to the equation below: [formula]
(§4) where V is the percent cell viability, Acontrol is the absorption of the control cells, and Atreated is the absorption of the treated cells.

[6] = tested on: LNCaP cells; experiment: MTT cell proliferation assay, LNCaP; type: cell-based, Human; settings: for ED50 values from MTT Assay, LNCaP: concentration giving 50% inhibition of cancer cell growth, 72 hours, linear interpolation of FIGS. 1-3
Procedure: as §1, §2, §3, §4

[7] = tested on: MCF-7 cells; experiment: MTT cell proliferation assay, MCF-7; type: cell-based; settings: for ED50 values from MTT Assay, MCF-7: concentration giving 50% inhibition of cancer cell growth, 72 hours, linear interpolation of FIGS. 1-3
Procedure: as §1, §2, §3, §4

[8] = tested on: Bax; experiment: Flow cytometric measurement of Bax protein in LNCaP; type: cell-based, Human; settings: flow cytometry
Procedure: (§5) To further verify the increase in Bax and the decrease in Bcl-2 proteins, and to determine the p53 protein levels induced by oridonin, flow cytometric measurement was performed to compare the results as obtained by Western blot. Following treatment with 3-9 μM of oridonin for 48 h, the LNCaP cells were trypsinized and washed with PBS. The cells were fixed in 1% formaldehyde in PBS on ice for 10 minutes and then permeabilized with 70% ethanol at −20° C. After fixation, the cells were rinsed with PBS, treated with a blocking solution containing 1% (w/v) bovine serum albumin (BSA) and 0.1% sodium azide in PBS (PBS-BSA) for 2 min at room temperature. The cells were subsequently added to a 100 μl aliquot of BSA/PBS solution containing 1:50 diluted primary antibody for Bcl-2, Bax (stained LNCaP) and p53. The mixtures were incubated at room temperature in the dark for 1 hr. The cells were subsequently washed twice with PBS-BSA buffer. The secondary antibody was added at 1:50 dilution for 30 minutes at room temperature in the dark, then counterstained for DNA by the addition of 1 ml of PI […] solution (final PI concentration 5 μg/ml) containing 100 μg/ml of RNAse A. Cellular fluorescence was measured with the ELITE ESP flow cytometer/cell sorter (Coulter Inc., Miami, Fla.) using the argon ion laser (emission at 488 nm). Fluorescence signals were collected using the standard configuration of the flow cytometer (green fluorescence for antibodies containing Bcl-2, Bax, and p53, and red fluorescence for DNA staining). 10,000 cells were analyzed per sample.

[9] = tested on: Bcl-2; experiment: Flow cytometric measurement of Bcl-2 protein in LNCaP; type: cell-based, Human; settings: 8.24 uM oridonin, flow cytometry, CTRL 11.3
Procedure: as §5, with “The cells were subsequently added to a 100 μl aliquot of BSA/PBS solution containing 1:50 diluted primary antibody for Bcl-2, Bax (stained LNCaP) and p53. The mixtures were incubated at room temperature in the dark for 1 hr. The cells were subsequently washed twice with PBS-BSA buffer.” left out

[10] = tested on: p53; experiment: Flow cytometric measurement of p53 protein in LNCaP; type: cell-based, Human; settings: for increase in p53 concentration: FIG. 12
Procedure: as §5

[11] = tested on: Bax and Bcl-2 protein expression; experiment: Western blot of Bax and Bcl-2 in LNCaP; type: cell-based, Human; settings: 8.24 uM and 13.74 uM of oridonin, 48 hours, FIG. 11
Procedure: To determine the Bcl-2:Bax ratio in oridonin-incubated LNCaP cells, a Western blotting procedure was performed. LNCaP cells were prepared such that one sample contained was incubated in the absence of oridonin, another sample in 8.24 uM of oridonin, and another sample in 13.74 uM of oridonin. The samples were incubated for 48 hours. Equal amounts of protein (10 micrograms) from LNCaP cell lysates were applied to a 10% SDS/PAGE (sodium dodecylsulfate/polyacrylamide gel electrophoresis) gel, and were then transferred to a PVDF membrane. The blots were probed with one of two primary antibodies comprising 1:100 Anti-Bax YTH-2D2 (Lot#3148E0, R&D, MN USA), and 1:100 Bcl-2 Oncoprotein (Clone 124, No. M0887), followed by second antibody exposure of 1:1000 Anti-mouse IgG-HRP (se-2005, Santa Cruz Biotechnology, USA) for 1 hour at […] temp. The immuno-binding signals were detected by the chemiluminescence method (ECL Western blotting system). The experiments were run in triplicates.

[12] = tested on: LNCaP cells; experiment: TdT DNA strand break apoptosis assay, LNCaP; type: cell-based, Human; settings: oridonin 13.7uM, 48 hours, FIG. 13
Procedure: To determine apoptosis in cells, a quantitative assay for the detection of DNA breakage, using the terminal deoxyribonucleotide transferase (TdT) color reaction assay (TiterTACS, Trevigen, Gaithersburg, Md.), was employed. Cells were fixed in 1% ice-cold formaldehyde for 15 minutes and postfixed in 70% ethanol overnight at −20° C. DNA strand breaks were directly labeled with fluorescent (2′-deoxyuridine 5′-triphosphate) dUTP in the reaction catalyzed by exogenous terminal deoxynucleotidyltransferase using the APO-Direct kit (Phoenix Flow System, San Diego, Calif.) according to the protocol provided with the kit. The green (FITC) and red (PI) fluorescence intensities of cells subjected to labeling DNA strand breaks with the use of TdT were measured using a FACScan Flow Cytometer (Becton Dickinson Immunocytometry Systems, San Jose, Calif.). The data from 10^4 cells per sample were collected, stored and analyzed using CELL Quest software (Becton Dickinson and Co.).

[13] = about 100 ug/ml of lupulone, FIG. 2
[14] = about 5 ug/ml of oridonin, FIG. 1

## CC/C(=C(/CC)c1ccc(O)cc1)c1ccc(O)cc1 [DES, reference compound]
[1]; DES (30 μM per FIG. 15 legend)
  cell cycle arrest phase: G2M phase arrest
[2]; DES
  cell cycle arrest phase: G2M phase arrest
[3]
  times more sensitive in inhibiting LNCaP than in inhibiting DU-145: about 2.5 times

## CC(C)=CCC1=C(O)C(CC=C(C)C)(CC=C(C)C)C(=O)C(C(=O)CC(C)C)=C1O [Lupulone, lupulone]
[4]; 60 micromolar (25 microgram/milliliter)
  effect on cell cycle: G1 phase arrest
[4]; 120 micromolar (50 microgram/milliliter)
  effect on cell proliferation: complete block of cell proliferation
[5]; [13]
  proliferation decreased compared to the control: more than 55%
[5]
  ED50 values from MTT Assay, DU-145: 89.7 µg/mL (≈ 216 µM)
[1]; lupulone (50 μg per FIG. 5 legend)
  increase of cells arrested in the G2M phase compared to cells not exposed: about 100%
[6]; [13]
  proliferation decreased compared to the control: more than 75%
[6]
  ED50 values from MTT Assay, LNCaP: 36.53 µg/mL (≈ 88.1 µM)
[7]; about 100 ug/ml of lupulone, FIG. 3
  proliferation decreased compared to the control: more than 85%
[7]
  ED50 values from MTT Assay, MCF-7: 56.62 µg/mL (≈ 137 µM)

## oridonin
[4]; 25 ug/ml
  cells arrested in the G1 phase: about 35%
[4]; 50 ug/ml
  cells arrested in the G1 phase: about 90%
[8]; 8.24uM of oridonin
  increase in the ratio of Bax/Bcl-2: ~75%
[8]; 8.24 uM oridonin, CTRL 1
  Bax/Bcl-2: 1.8
[8]; 8.24 uM oridonin, CTRL 11.8
  Bax: 14.5
[9]
  Bcl-2: 7.9
[10]; 8.2 uM of oridonin
  increase in p53 concentration: Approximately 40%
[10]; 8.24uM oridonin, flow cytometry
  increase in the ratio of p53/Bcl-2: 100%
[10]; 8.24 uM oridonin, flow cytometry, CTRL 1
  p53/Bcl-2: 2.0
[10]; 8.24 uM oridonin, flow cytometry, CTRL 8.8
  p53: 12.3
[10]; 13.74 uM of oridonin
  increase in p53 concentration: ~100%
[5]; [14]
  proliferation decreased over that of the control: more than 80%
[5]
  ED50 values from MTT Assay, DU-145: 3.03 µg/mL
[1]; 3 ug/ml of oridonin, FIG. 5
  more cells arrested in the G1 phase compared to cells not exposed: over 25%
[1]; oridonin
  cell cycle arrest phase: G1 cell cycle arrest
[1]; oridonin 3 μg/ml, 24 hr, FIG. 4
  cells in the G1 phase of the cell cycle: over 65%
[1]; oridonin, FIG. 9b
  cells arrested in the G1 phase: about 68%
[11]
  ratio of Bax/Bcl-2 by Western blot: increased significantly
[12]
  cell apoptosis: About 6%
[6]; [14]
  proliferation reduced over that of the control: about 75%
[6]
  ED50 values from MTT Assay, LNCaP: 2.11 µg/mL
[2]; DU-145 (so in the source), about 8.20 uM-22 uM of oridonin, FIG. 10
  cells arrested in the G1 phase: over 60%
[2]; 1.5 ug/ml of oridonin
  increase in the number of cells arrested in the S phase compared to the control: ~16%
[2]; 3.0 ug/ml of oridonin
  increase in the number of cells arrested in the S phase compared to the control: about 30%
[2]; FIG. 9d
  cells arrested in the G2M phase: about 37%
[2]; about 8.20 uM-22 uM of oridonin, FIG. 10
  cells arrested in the G2M phase: 30-55%
[2]; oridonin
  cell cycle arrest phase: G2M arrest
[7]
  ED50 values from MTT Assay, MCF-7: 1.71 µg/mL
[7]; under 15 ug/ml of oridonin, FIG. 3
  absorbance reading of MTT: 0
